The experiment has as its target cAMP and cAMP-inhibited cGMP 3',5'-cyclic phosphodiesterase 10A (Homo sapiens, UniProt Q9Y233). The experiment can be described thus: Fluorescence Polarization Assay: The fluorescence polarization assay for cyclic nucleotide phosphodiesterases was performed using an IMAP® FP kit supplied by Molecular Devices, Sunnyvale, Calif. (product # R8139). IMAP® technology has been applied previously to phosphodiesterase assays (Huang, W., et al., J. Biomol Screen, 2002, 7: 215). Assays were performed at room temperature in 384-well microtiter plates with an incubation volume of 20.2 μL. Solutions of test compounds were prepared in DMSO and serially diluted with DMSO to yield 8 μL of each of 10 solutions differing by 3-fold in concentration, at 32 serial dilutions per plate.
cAMP and cAMP-inhibited cGMP 3',5'-cyclic phosphodiesterase 10A, sequence (Q9Y233 whole entry): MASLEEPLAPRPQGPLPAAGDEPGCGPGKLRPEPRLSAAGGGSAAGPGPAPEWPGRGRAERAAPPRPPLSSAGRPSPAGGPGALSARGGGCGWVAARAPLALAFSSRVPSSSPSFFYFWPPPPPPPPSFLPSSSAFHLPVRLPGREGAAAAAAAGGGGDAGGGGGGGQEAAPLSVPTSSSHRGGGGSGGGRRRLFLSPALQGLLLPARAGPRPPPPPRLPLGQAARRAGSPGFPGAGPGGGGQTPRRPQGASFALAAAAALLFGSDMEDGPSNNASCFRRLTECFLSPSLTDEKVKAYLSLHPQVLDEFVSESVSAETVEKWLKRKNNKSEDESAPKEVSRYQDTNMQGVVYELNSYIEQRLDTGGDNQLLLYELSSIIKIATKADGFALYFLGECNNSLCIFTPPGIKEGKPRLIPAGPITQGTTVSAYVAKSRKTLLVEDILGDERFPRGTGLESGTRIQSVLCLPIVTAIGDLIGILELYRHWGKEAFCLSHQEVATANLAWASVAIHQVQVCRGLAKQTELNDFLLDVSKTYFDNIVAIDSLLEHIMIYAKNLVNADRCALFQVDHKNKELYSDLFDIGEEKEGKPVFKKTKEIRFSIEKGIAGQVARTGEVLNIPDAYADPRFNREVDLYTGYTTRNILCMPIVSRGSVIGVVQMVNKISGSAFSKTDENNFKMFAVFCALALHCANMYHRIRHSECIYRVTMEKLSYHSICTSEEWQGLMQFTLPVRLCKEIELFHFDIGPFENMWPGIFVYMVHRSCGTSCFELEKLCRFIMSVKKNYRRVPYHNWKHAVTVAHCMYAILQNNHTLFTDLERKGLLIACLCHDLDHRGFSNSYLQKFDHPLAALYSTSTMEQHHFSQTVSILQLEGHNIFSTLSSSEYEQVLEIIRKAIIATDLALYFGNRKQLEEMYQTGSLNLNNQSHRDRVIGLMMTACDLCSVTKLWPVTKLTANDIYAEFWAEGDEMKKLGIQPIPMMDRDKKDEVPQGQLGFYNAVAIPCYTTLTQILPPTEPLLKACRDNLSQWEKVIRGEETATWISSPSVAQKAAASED
Consider `Cc1ccc([C@H]2C[C@@H]2COc2nc(C)ncc2-c2cccc(C(F)(F)F)c2)nc1`, for which the affinity corresponds to a Ki of 0.83 nM.

The molecule `Cc1ncc(-c2cnc(C(C)(C)O)cc2C)c(OC[C@H]2C[C@@H]2c2ccc3ccccc3n2)n1` had a Ki below 0.01 nM.

The molecule `COc1ccc([C@H]2C[C@@H]2COc2nc(C)ncc2-c2ccc(Cl)nc2)nc1` had a Ki of 1.3 nM.

As to `Cc1ccc([C@H]2C[C@@H]2COc2nc(C)ncc2-c2cncnc2)nc1`, affinity was put at a Ki of 2.56 nM.

For the molecule `Cc1ncc(-c2ccc(C(C)(C)O)nc2)c(OC[C@H]2C[C@@H]2c2ccc(F)cn2)n1`, the Ki is 0.57 nM.

Values taken from ChEMBL document CHEMBL5726258, “Pyrimidine PDE10 inhibitors” (2017).
